Laboratory results from US8226943B2, “Antibodies to notch receptors” (OncoMed Pharmaceuticals, Inc., priority 2008, dated 2012).

Columns and labels:
hNotch1 = target: T1, hNotch1 (Homo sapiens, UniProt P46531); assay: Biacore affinity, human Notch1; type: binding; conditions: Table 6, Biacore; read-out: IgG Dissociation Constant (KD) h-Notch1
T1 construct: recombinant human and mouse Notch proteins (EGF10-15 for Notch1, 2, & 4; EGF9-14 for Notch3) were immobilized on a CM5 chip
Description: The affinities for human and mouse Notch1, Notch2, Notch3, and Notch4 were determined using a Biacore 2000 instrument. Briefly, recombinant human and mouse Notch proteins (EGF10-15 for Notch1, 2, & 4; EGF9-14 for Notch3) were immobilized on a CM5 chip using standard amine based chemistry (NHS/EDC). For hNotch2, EGF1-12 was also tested for binding. Different antibody concentrations (1-100 nM) were injected over the protein surfaces and kinetic data were collected over time. The data was fit using the simultaneous global fit equation to yield dissociation constants (KD, nM) for each Notch (Table 3).
The sequences of the heavy chain and light chain are provided in SEQ ID NO: 49 and SEQ ID NO:18, respectively. The heavy chain variable region is provided in SEQ ID NO:50 and the light chain variable region is provide SEQ ID NO:13. The heavy chain CDR3 sequence of 59R5 comprises SIFYTT, SEQ ID NO:51. The other CDR sequences of 59R5 are identical to 59R1. […] Both antibodies bind human and murine Notch2 and Notch3 receptors with sub-nanomolar affinity (see Table 6).

PE13 breast tumor cells = assay: PE13 breast tumor xenograft growth; type: in vivo, NOD/SCID mice
Description: In certain embodiments, NOD/SCID mice injected with 50,000 PE13 or T3 breast tumor cells were treated with anti-Notch2/3 antibody 59R1 or control antibody 1B7.11 two days following cell injections. Antibodies were dosed at 10 mg/kg twice week.
In a further experiment, anti-Notch2/3 antibodies were tested for an effect on breast tumor growth. NOD/SCID mice were injected with 50,000 PE13 or T3 breast tumor cells, and tumors were allowed to grow to a size of between 65 to 200 mm^3 after which mice were randomized (n=10 per experimental group), and antibodies administration begun. Animals were treated with 15 mg/kg of either control 1B7.11 antibodies or anti-Notch2/3 59R1 antibodies twice weekly. Tumor size was measured twice weekly, and tumor volume was calculated as described (see Michieli et al., 2004).
(§1) The 59R1 IgG2 antibody was also tested in vivo in the breast tumor xenograft lines OMP-B34, OMP-B39, OMP-B44, PE13, and UM-T1, the pancreas tumor xenograft line OMP-PN8, and the colon tumor xenograft line OMP-C8. These tumor xenograft lines were established by adhering to procedures described in Al-Hajj et al., 2003, Proc. Natl. Acad. Sci. USA, 100:3983-3988. Female NOD/SCID immuno-compromised mice 7-10 weeks old were used for the establishment of the breast tumor xenografts and male NOD/SCID mice were used for the OMP-Pn8 and OMP-C8 tumor-models (Harlan, Indianapolis, Ind.). The 59R1 IgG2 antibody was also tested in vivo in a Colo-205 colon tumor xenograft model. Female immunodeficient bg/nu XID mice on a Swiss CD-1 background were used for the Colo-205 xenograft tumor model. In case of the breast cancer models, slow-releasing estrogen pellets (0.36 mg) had to be implanted. Mice were subcutaneously injected on the right flank with 50,000 (OMP-B34, OMP-B39, OMP-B44, PE13, and UM-T1) or 1×10^7 (Colo-205) viable cells, respectively, in a mixture of PBS (without magnesium or calcium) and Matrigel at a 1:1 ratio. The injected total volume per mouse was 200 μl with 50% being Matrigel. Once the tumor had reached a size between 65-200 mm^3, the mice were randomized. Antibodies were administered weekly and tumors measured twice weekly. LZ1 (a human antibody that recognizes lyzozyme) or 1B711 (a murine IgG1 antibody that recognizes the hapten trinitrophenol) was used as a control antibody for treatment of each tumor type. Tumor volume was calculated as described Al-Hajj et al. (2003). Data are expressed as the mean and the mean±S.E.M. Group means were compared using Student's two-tailed, unpaired t-test. […] All statistical analysis was performed using Microsoft EXCEL and Graph Pad PRISM.
In one embodiment, NOD/SCID mice were injected with PE13 breast tumor cells. The mice were treated with anti-Notch2/3 antibody 59R1, anti-Notch2/3 antibody 59R5, or control antibody. Antibodies were dosed at 15 mg/kg once per week in a “preventative” mode where dosing was initiated two days after cell injection.
In one embodiment, to evaluate the effect of 59R5 on cancer stem cells, a tumor recurrence study was carried out in the PE13 breast tumor model. NOD/SCID mice were injected with PE13 breast tumor cells. The tumors were allowed to grow for 40 days before treatments were initiated. The mice were treated with taxol at 15 mg/kg twice per week for 5 weeks, in combination with either control antibody or anti-Notch 2/3 antibody 59R5. After 5 weeks, the taxol treatments were stopped and the antibody treatments were continued.
(§2) Tumor volumes and p values for each experiment are shown relative to the control group. The PE13, C28 and Colo205 studies were carried out as described in Example 14. PN8 studies were carried out as described above. For the PN8 experiment, the control is gemcitabine alone and values for 59R1 and 59R5 are the combinations with gemcitabine. Antibodies were dosed once per week at 15 mg/kg for all experiments.

[1] = tested on: PN8 pancreatic tumor cells; assay: PN8 pancreatic tumor xenograft growth; type: in vivo, NOD/SCID mice; conditions: for PN8 Tumor vol relative to the control group: combination with gemcitabine, control is gemcitabine alone, antibody 15 mg/kg once per week
Description: as §1
In one embodiment, NOD/SCID mice were injected with PN8 pancreatic tumor cells. The tumors were allowed to grow for approximately 33 days until they had reached an average tumor volume of 150 mm^3. The mice were treated with gemcitabine at 20 mg/kg once per week for four weeks in combination with control antibody, anti-Notch2/3 antibody 59R1, or anti-Notch2/3 antibody 59R5.
as §2

PE13 tumors = assay: Microarray analysis of 59R1 and 59R5 treated PE13 tumors; type: in vivo, mice; conditions: for Fold Foxc2 / Fold Gzma / Fold Hey2 / Fold Heyl / Fold Mmp9 / Fold Notch3 / Fold Pdcd1lg2 / Fold Rgs4 / Fold Rgs5: treated vs. control, mean of 3 animals per group
Source text: The numbers are mean differential expression values for treated vs. control animals, with 3 animals per group.

[2] = established tumors, 15 mg/kg once a week

T1 sequence (P46531 372-601 limits assumed): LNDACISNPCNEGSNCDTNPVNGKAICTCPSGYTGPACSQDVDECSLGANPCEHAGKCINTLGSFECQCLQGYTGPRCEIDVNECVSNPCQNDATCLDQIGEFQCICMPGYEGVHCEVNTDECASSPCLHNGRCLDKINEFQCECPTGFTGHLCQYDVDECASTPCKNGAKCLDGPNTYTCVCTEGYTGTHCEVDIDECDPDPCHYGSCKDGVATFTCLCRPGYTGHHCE

Substance | Kd (hNotch1) | PE13 tumor growth compared to control (PE13 breast tumor cells; 10 mg/kg twice week, started two days following cell injections) | PE13 Tumor vol relative to the control group (PE13 breast tumor cells; 15 mg/kg once per week) | PE13 breast cancer growth relative to control antibody (PE13 breast tumor cells; [2]) | PE13 tumor growth compared to control (PE13 breast tumor cells; established tumors, 15 mg/kg twice weekly) | PN8 Tumor vol relative to the control group [1] | PN8 pancreatic tumor growth relative to control antibody [1, 2] | Fold Foxc2 (PE13 tumors) | Fold Gzma (PE13 tumors) | Fold Hey2 (PE13 tumors) | Fold Heyl (PE13 tumors) | Fold Mmp9 (PE13 tumors) | Fold Notch3 (PE13 tumors) | Fold Pdcd1lg2 (PE13 tumors) | Fold Rgs4 (PE13 tumors) | Fold Rgs5 (PE13 tumors) | inhibition of PE13 tumor growth (PE13 breast tumor cells; 15 mg/kg once per week, preventative mode (dosing two days after cell injection)) | PE13 tumor recurrence after high-dose taxol treatment (PE13 breast tumor cells; taxol 15 mg/kg twice per week for 5 weeks plus antibody, then antibody only) | PN8 tumor growth, antibody in combination with gemcitabine ([1]; gemcitabine 20 mg/kg once per week for four weeks) | Notch pathway as measured by gene expression (Foxc2, Hey2, Heyl, Notch3) (PE13 tumors; microarray, p<0.01)
59R1: human IgG2 antibody binding Notch2 and Notch3; heavy and light chain SEQ ID NO:16 and 18; ATCC PTA-9547 | > 0.01 µM | significantly reduced | 0.25 | inhibit breast cancer growth | significantly reduced | 0.27 | inhibit pancreatic tumor growth | −5.10 | 7.42 | −4.40 | −3.33 | −1.92 | −2.10 | 2.36 | −2.71 | −4.32 |  |  |  | 
59R5: human antibody that specifically binds human Notch 2 and human Notch 3; heavy and light chain SEQ ID NO:49 and 18; ATCC PTA-10170 | > 0.01 µM |  | 0.18 |  |  | 0.11 |  | −3.00 | 2.80 | −2.46 | −2.79 | −2.35 | −1.86 | 4.97 | −2.90 | −2.14 | greater than 80% | significantly delay tumor recurrence | inhibited tumor growth at a similar level as antibody 59R1 | significantly inhibited the Notch pathway
